What was measured:
Neuromedin-B receptor [1] = biological target: T1, Neuromedin-B receptor (Homo sapiens, UniProt P28336); assay: Binding affinity against [125 I][4Tyr]-bombesin labeled cloned human NMB receptor stably expressed in CHO cells; assay type: cell-based
Target sequence in this assay (P28336 whole entry): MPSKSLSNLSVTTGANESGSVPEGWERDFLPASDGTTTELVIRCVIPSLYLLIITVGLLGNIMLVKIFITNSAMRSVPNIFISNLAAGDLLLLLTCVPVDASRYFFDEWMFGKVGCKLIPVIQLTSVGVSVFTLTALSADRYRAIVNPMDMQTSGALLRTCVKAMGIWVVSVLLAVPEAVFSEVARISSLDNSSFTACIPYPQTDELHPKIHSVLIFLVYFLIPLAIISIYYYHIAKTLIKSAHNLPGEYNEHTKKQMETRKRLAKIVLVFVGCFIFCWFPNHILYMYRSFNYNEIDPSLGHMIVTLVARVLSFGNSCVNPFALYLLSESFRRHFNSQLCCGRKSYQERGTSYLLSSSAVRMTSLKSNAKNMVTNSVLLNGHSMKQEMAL

[2] = biological target: Gastrin-releasing peptide receptor (Homo sapiens, UniProt P30550); assay: Binding affinity against [125 I][4Tyr]-bombesin labeled cloned human GRP(gastrin releasing peptide) receptors stably expressed in CHO cells; assay type: cell-based
Sequence of Gastrin-releasing peptide receptor (P30550 whole entry): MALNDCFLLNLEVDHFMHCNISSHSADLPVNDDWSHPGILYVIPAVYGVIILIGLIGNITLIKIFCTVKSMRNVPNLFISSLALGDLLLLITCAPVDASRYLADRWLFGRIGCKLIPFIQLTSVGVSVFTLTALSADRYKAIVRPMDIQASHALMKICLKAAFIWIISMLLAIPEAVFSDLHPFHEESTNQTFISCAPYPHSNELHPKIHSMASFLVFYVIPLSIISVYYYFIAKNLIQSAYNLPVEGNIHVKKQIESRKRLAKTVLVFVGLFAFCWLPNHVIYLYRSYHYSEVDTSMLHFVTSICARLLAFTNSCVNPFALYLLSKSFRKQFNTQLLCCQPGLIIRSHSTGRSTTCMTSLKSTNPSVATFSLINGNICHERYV

Neuromedin-B receptor [3] = biological target: T2, Neuromedin-B receptor (Rattus norvegicus, UniProt P24053); assay: Binding affinity against NMB receptor in rat olfactory bulb was determined using [125I]-[Tyr4] bombesin.
T2 sequence (P24053 whole entry): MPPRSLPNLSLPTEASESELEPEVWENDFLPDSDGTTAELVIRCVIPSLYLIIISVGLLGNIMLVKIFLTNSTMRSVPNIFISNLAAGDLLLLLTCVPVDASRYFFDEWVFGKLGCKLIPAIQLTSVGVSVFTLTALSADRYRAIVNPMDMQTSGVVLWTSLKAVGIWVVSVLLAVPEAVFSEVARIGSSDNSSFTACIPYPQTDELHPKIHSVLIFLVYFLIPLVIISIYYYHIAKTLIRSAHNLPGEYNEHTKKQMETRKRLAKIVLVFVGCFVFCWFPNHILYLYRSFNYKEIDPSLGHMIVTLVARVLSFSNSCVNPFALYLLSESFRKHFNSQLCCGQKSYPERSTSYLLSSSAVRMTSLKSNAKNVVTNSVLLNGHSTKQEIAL

Neuromedin-B receptor [4] = biological target: T1, Neuromedin-B receptor; assay: Inhibition of the NMB evoked increases in chloride currents in xenopus oocytes expressing human NMB receptor; assay type: functional, cell-based; details: Oocyte
Target sequence in this assay (P28336 whole entry, looked up): as the sequence (P28336 whole entry) above

Neuromedin-B receptor [5] = biological target: T1, Neuromedin-B receptor; assay: Binding affinity against human NMB receptor was determined
Target sequence in this assay (P28336 whole entry): as above

Neuromedin-B receptor [6] = biological target: T1, Neuromedin-B receptor; assay: Inhibition of the NMB induced acidification response at human NMB receptor expressed in CHO cell; assay type: functional, cell-based
Target sequence in this assay (P28336 whole entry, looked up): as the sequence (P28336 whole entry) above

SMILES	Ki (Neuromedin-B receptor [1])	Ki [2]	IC50 (Neuromedin-B receptor [3])	Kb (Neuromedin-B receptor [4])	Ki (Neuromedin-B receptor [5])	Kb (Neuromedin-B receptor [6])
CC(C)c1cccc(C(C)C)c1NC(=O)NC(C)(Cc1c[nH]c2ccccc12)C(=O)NCCc1ccccc1 (stereo not drawn)	450 nM	> 10000 nM				
CC(C)c1cccc(C(C)C)c1NC(=O)NC(C)(Cc1c[nH]c2ccccc12)C(=O)N[C@@H]1COC(C)(C)OC1c1ccccc1 (stereo partly drawn)	420 nM	> 10000 nM				
CC(C)c1cccc(C(C)C)c1NC(=O)N[C@@](C)(Cc1c[nH]c2ccccc12)C(=O)NC1CCCCC1c1ccccc1 (stereo partly drawn)	76 nM	> 10000 nM				
CC(C)c1cccc(C(C)C)c1NC(=O)NC(C)(Cc1c[nH]c2ccccc12)C(=O)NC1COC(C)(C)OC1 (stereo not drawn)	630 nM	> 10000 nM				
CC(C)c1cccc(C(C)C)c1NC(=O)NC(C)(Cc1c[nH]c2ccccc12)C(=O)NC1CCCc2ccccc21 (stereo not drawn)	72 nM	> 10000 nM				
CC(C)c1cccc(C(C)C)c1NC(=O)NC(C)(Cc1c[nH]c2ccccc12)C(=O)NCC1(c2ccccc2)CCCCC1 (stereo not drawn)	7.8 nM	> 10000 nM				
CC(C)c1cccc(C(C)C)c1NC(=O)NC(C)(Cc1c[nH]c2ccccc12)C(=O)NC1CCc2ccccc2C1 (stereo not drawn)	310 nM	> 10000 nM				
CC(C)c1cccc(C(C)C)c1NC(=O)N[C@@](C)(Cc1c[nH]c2ccccc12)C(=O)NCC1(c2ccccn2)CCCCC1	6.3 nM	> 10000 nM	150 nM	7.5 nM	6.3 nM	7.6 nM
CC(C)c1cccc(C(C)C)c1NC(=O)N[C@](C)(Cc1c[nH]c2ccccc12)C(=O)NC1CCCc2ccccc21 (stereo partly drawn)	14 nM	> 10000 nM				
CC(C)c1cccc(C(C)C)c1NC(=O)NC(C)(Cc1c[nH]c2ccccc12)C(=O)N[C@H]1COC(C)(C)OC1c1ccccc1 (stereo partly drawn)	95 nM	> 10000 nM				
CNC(=O)C(C)(Cc1c[nH]c2ccccc12)NC(=O)Nc1c(C(C)C)cccc1C(C)C (stereo not drawn)	3700 nM	> 10000 nM				

Continued, values first:

Ki (Neuromedin-B receptor [1])	Ki [2]	IC50 (Neuromedin-B receptor [3])	Kb (Neuromedin-B receptor [4])	Ki (Neuromedin-B receptor [5])	Kb (Neuromedin-B receptor [6])	SMILES
260 nM	> 10000 nM					CC(C)c1cccc(C(C)C)c1N(C)C(=O)NC(Cc1c[nH]c2ccccc12)C(=O)NCC1CCCCC1 (stereo not drawn)
120 nM	> 10000 nM					CC(C)c1cccc(C(C)C)c1NC(=O)NC(Cc1c[nH]c2ccccc12)C(=O)NCC1CCCCC1 (stereo not drawn)
310 nM	> 10000 nM					CC(C)c1cccc(C(C)C)c1NC(=O)NC(C)(Cc1c[nH]c2ccccc12)C(=O)NC1CCCCC1 (stereo not drawn)
	> 10000 nM					CC(C)c1cccc(C(C)C)c1NC(=O)NC(Cc1c[nH]c2ccccc12)C(=O)N(C)CC1CCCCC1 (stereo not drawn)
125 nM	> 10000 nM					CC(C)c1cccc(C(C)C)c1NC(=O)NC(C)(Cc1c[nH]c2ccccc12)C(=O)NCC1CCCCC1 (stereo not drawn)
440 nM	> 10000 nM					CC(C)c1cccc(C(C)C)c1NC(=O)NC(Cc1c[nH]c2ccccc12)C(=O)NC(C)C1CCCCC1 (stereo not drawn)
	1500 nM					CC(C)c1cccc(C(C)C)c1NC(=O)N(C)C(Cc1c[nH]c2ccccc12)C(=O)NCC1CCCCC1 (stereo not drawn)

Source: ChEMBL document CHEMBL1159192, “PD 165929 the first high affinity non-peptide neuromedin-B (NMB) receptor selective antagonist” (Bioorg Med Chem Lett, 1996)
